Literature values in US20100029551A1, “Treatment Of Inflammatory Lung Conditions With Aerosolized Macrolide Antibiotics” (priority 2008, published 2010).

Structure (SMILES): CO[C@]1(C)C[C@@H](C)C(=O)[C@H](C)[C@@H](O)[C@](C)(O)[C@@H](C(C)O)OC(=O)[C@H](C)[C@@H](O[C@H]2C[C@@](C)(OC)[C@@H](O)[C@H](C)O2)[C@H](C)[C@H]1O[C@@H]1O[C@H](C)C[C@H](N(C)C)[C@H]1O (some centres unmarked) [14-hydroxy clarithromycin]
- Activity relative to clarithromycin (first-pass metabolite of clarithromycin): approximately twice as active as clarithromycin
- Plasma half-life relative to clarithromycin (plasma): significantly longer plasma half-life than clarithromycin
